Format in all cases: in vivo, mouse
The test system of assay [1] is pregnant female μMT mice (LPS-induced PTL). In words: LPS-induced preterm labor in pregnant μMT mice: preterm delivery and neonatal/fetal mortality. As to conditions: read on gd 17.5, fPIBF1 1 μg (800 ng in method), cPIBF1 300 ng, vs PBS. Here is the method:
(§1) Six to ten-week old virgin female C57BL/6 (WT) or μMT mice were mated with male Balb/c mice. Female mice were examined daily in the early morning for the presence of a vaginal plug, which denoted gestational day (gd) 0.5. In the late morning of gd 16.5, pregnant female mice were intraperitoneally administered with 200 μl sterile PBS or 200 μl sterile PBS containing 0.5, 2.5, 5, 10 or 20 μg lipopolysaccharides (LPS) from Salmonella enterica serotype typhimurium (Sigma-Aldrich L6143). The various doses of LPS were given to the mice randomly. In some experiments, splenic B cells of 5 to 8-week old virgin female WT or IL-10−/− mice were purified using a mouse resting B cell negative isolation kit (Miltenyi Biotec 130-090-862) to 94% to 99% purity as determined by CD19 staining. 107 purified B cells were adoptively transferred in 200 μl sterile PBS into pregnant female μMT mice on gd 14.5 prior to LPS administration on gd 16.5. In some other experiments, 200 μl sterile PBS or 200 μl sterile PBS containing 800 ng recombinant full-length PIBF1 (fPIBF1) (aa 1-757 (SEQ ID NO:11, with an N-terminal glutathione-S-transferase (GST) tag of 232 amino acids, Abnova H00010464-P01) or 300 ng of a recombinant C-terminal fragment of PIBF1 (cPIBF1) (aa 660-755 (SEQ ID NO:12), with an N-terminal glutathione-S-transferase (GST) tag of 232 amino acids, Abnova H00010464-Q01) was intravenously administered to pregnant female μMT mice on gd 16.5 three hours prior to intraperitoneal LPS administration. 24 hours after LPS administration, female mice were examined for delivery and death of delivered pups if delivery occurred. They were then sacrificed for the examination of neonatal/fetal mortality, which was calculated as the total number of dead delivered pups and dead fetuses divided by the total number of implantation sites. Uteri were collected, briefly washed in PBS and processed for RNA and protein extraction or flow cytometry. The people performing the analysis were not blinded to the genotype or treatment of the mice.
The sample size was calculated based on the effect size derived from preliminary data at 5% significance level and 80% power using the software G*Power 3.1. Sample availability exceeded the estimated sample size. Results are expressed as mean±S.E.M. Percentage data were subjected to square root transformation prior to statistical analysis to verify test assumptions of equal variance. Statistical difference in the rate of PTL between different strains of mice or different treatment groups was assessed by Fisher's exact test. Statistical difference in neonatal/fetal mortality was assessed by Mann-Whitney U test. For flow cytometry and qRT-PCR data, Shapiro-Wilk test was used to determine the normality of the data. Statistical significance was assessed by Student's t-test for normally distributed data and Mann-Whitney U test for non-normally distributed data. p values <0.05 were considered statistically significant.

Assay [2] has as its system uterine proinflammatory mediators (Tnf, Il6, Mmp9, Cxcl2, Cxcl3, Cxcl5, Il1b, Cxcl10, Ccl3, Cxcl1, Ccl2, Cxcl9 transcripts). In words: qRT-PCR of proinflammatory mediator transcripts in uterine tissues of LPS-challenged μMT mice. To be noted: 24 hours after intravenous fPIBF1 and 5 μg intraperitoneal LPS, fold change of transcripts. Here is the method: Six to ten-week old virgin female C57BL/6 (WT) or μMT mice were mated with male Balb/c mice. Female mice were examined daily in the early morning for the presence of a vaginal plug, which denoted gestational day (gd) 0.5. In the late morning of gd 16.5, pregnant female mice were intraperitoneally administered with 200 μl sterile PBS or 200 μl sterile PBS containing 0.5, 2.5, 5, 10 or 20 μg lipopolysaccharides (LPS) from Salmonella enterica serotype typhimurium (Sigma-Aldrich L6143). The various doses of LPS were given to the mice randomly. In some experiments, splenic B cells of 5 to 8-week old virgin female WT or IL-10−/− mice were purified using a mouse resting B cell negative isolation kit (Miltenyi Biotec 130-090-862) to 94% to 99% purity as determined by CD19 staining. 107 purified B cells were adoptively transferred in 200 μl sterile PBS into pregnant female μMT mice on gd 14.5 prior to LPS administration on gd 16.5. […] They were then sacrificed for the examination of neonatal/fetal mortality, which was calculated as the total number of dead delivered pups and dead fetuses divided by the total number of implantation sites. […]
In general terms: Real-time PCR tracks product formation cycle by cycle.

Assay [3] has as its system CD11b+Ly-6G+ neutrophils in uterine tissues. The assay can be described thus: Flow cytometry of uterine neutrophils of LPS-challenged μMT mice. To be noted: vs PBS; for uterine neutrophil activation (CD11b, CD18, iNOS, ICAM-1, MHC-II, CD62L expression): μMT mice 24 hours after intravenous protein and intraperitoneal LPS. The method, then: as §1, with “Uteri were collected, briefly washed in PBS and processed for RNA and protein extraction or flow cytometry. The people performing the analysis were not blinded to the genotype or treatment of the mice.” left out
Cells were incubated with an Fc blocking reagent and stained at 4° C. with antibodies to various cell surface antigens (Tables 4, 5). […] Events were acquired on an LSR II cytometer (BD Biosciences) and analyzed by FlowJo (Tree Star). […]
(In general: In flow cytometry, cells or beads pass a laser one at a time.)

One substance from patent publication US10391148B2, “Method of prevention and inhibition of preterm labor” (Wayne State University, priority 2016, dated 2019) can be followed below.

Regarding “fPIBF1: recombinant full-length PIBF1, aa 1-757, SEQ ID NO:11, N-terminal GST tag of 232 amino acids, Abnova H00010464-P01”, the neonatal/fetal mortality entry in assay [1] (protein intravenous on gd 16.5 before 5 μg intraperitoneal LPS) is “significantly reduced”. Also, in assay [1] (protein intravenous on gd 16.5 three hours before 5 μg intraperitoneal LPS), the “rate of preterm delivery (PTL)” value was “significantly reduced”. Also, the “uterine induction of proinflammatory mediators (uterine inflammation)” value is “suppressed” in assay [2] and “reduces” in assay [2] (listed as full-length PIBF1). The “neutrophil infiltration into the uterus (frequency of CD11b+Ly-6G+ neutrophils in CD45+ cells)” value in assay [3] (gd 17.5 μMT mice after intravenous protein and intraperitoneal LPS on gd 16.5) is reported as “inhibited”. The “uterine neutrophil activation (CD11b, CD18, iNOS, ICAM-1, MHC-II, CD62L expression)” value in assay [3] is on record as “reduced activation”; in assay [3] (listed as full-length PIBF1), “reduces”.
